Laboratory results taken from ChEMBL document CHEMBL4507274 (2021).

Tests used:
Settings in all cases: Compound concentration 100.0 nM
[1] = target: Insulin receptor-related protein (Homo sapiens) (UniProt P14616)
[2] = target: Tyrosine-protein kinase ABL1 (Homo sapiens) (UniProt P00519)
[3] = target: Atypical kinase COQ8A, mitochondrial (Homo sapiens) (UniProt Q8NI60)
[4] = target: Serine/threonine-protein kinase/endoribonuclease IRE1 (Homo sapiens) (UniProt O75460)
[5] = target: Muscle, skeletal receptor tyrosine-protein kinase (Homo sapiens) (UniProt O15146)
[6] = target: Serine/threonine-protein kinase PknB (Mycobacterium tuberculosis) (UniProt P9WI81)
[7] = target: T1, Protein kinase C iota type (Homo sapiens) (UniProt P41743)
T1 sequence (whole entry): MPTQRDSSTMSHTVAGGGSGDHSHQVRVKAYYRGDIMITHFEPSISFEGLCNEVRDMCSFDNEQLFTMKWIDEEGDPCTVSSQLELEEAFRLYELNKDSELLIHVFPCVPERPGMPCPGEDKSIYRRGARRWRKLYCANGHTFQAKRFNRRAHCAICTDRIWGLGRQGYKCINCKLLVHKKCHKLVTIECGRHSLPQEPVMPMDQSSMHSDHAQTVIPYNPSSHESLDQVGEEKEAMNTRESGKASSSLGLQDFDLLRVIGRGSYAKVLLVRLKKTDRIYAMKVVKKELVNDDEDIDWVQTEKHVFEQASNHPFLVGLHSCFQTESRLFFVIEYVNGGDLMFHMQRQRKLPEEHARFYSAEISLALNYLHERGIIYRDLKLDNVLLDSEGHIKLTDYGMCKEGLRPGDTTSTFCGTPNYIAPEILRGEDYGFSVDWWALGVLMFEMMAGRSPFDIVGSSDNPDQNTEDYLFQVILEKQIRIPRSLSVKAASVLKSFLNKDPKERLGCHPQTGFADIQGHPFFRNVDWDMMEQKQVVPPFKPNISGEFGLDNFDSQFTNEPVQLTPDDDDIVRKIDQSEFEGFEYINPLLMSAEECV

[8] = target: Serine/threonine-protein kinase SIK1 (Homo sapiens) (UniProt P57059)
[9] = target: Serine/threonine-protein kinase pim-2 (Homo sapiens) (UniProt Q9P1W9)
[10] = target: Serine/threonine-protein kinase Nek7 (Homo sapiens) (UniProt Q8TDX7)
[11] = target: Phosphatidylinositol 3-kinase C2 domain-containing subunit gamma (Homo sapiens) (UniProt O75747)
[12] = target: Calcium/calmodulin-dependent protein kinase kinase 2 (Homo sapiens) (UniProt Q96RR4)
[13] = target: Mitogen-activated protein kinase kinase kinase 19 (Homo sapiens) (UniProt Q56UN5)
[14] = target: Cyclin-dependent kinase 4 (Homo sapiens) (UniProt P11802)
[15] = tested on: Receptor-type tyrosine-protein kinase FLT3 (Homo sapiens), P36888 [R834Q]
[16] = target: Serine/threonine-protein kinase 38 (Homo sapiens) (UniProt Q15208)
[17] = target: Homeodomain-interacting protein kinase 2 (Homo sapiens) (UniProt Q9H2X6)
[18] = target: Mitogen-activated protein kinase 10 (Homo sapiens) (UniProt P53779)
[19] = target: Serine/threonine-protein kinase 36 (Homo sapiens) (UniProt Q9NRP7)
[20] = target: Serine/threonine-protein kinase Nek5 (Homo sapiens) (UniProt Q6P3R8)
[21] = target: cAMP-dependent protein kinase catalytic subunit PRKX (Homo sapiens) (UniProt P51817)
[22] = target: Inhibitor of nuclear factor kappa-B kinase subunit epsilon (Homo sapiens) (UniProt Q14164)
[23] = target: Serine/threonine-protein kinase Nek9 (Homo sapiens) (UniProt Q8TD19)
[24] = target: Serine/threonine-protein kinase Nek6 (Homo sapiens) (UniProt Q9HC98)
[25] = target: Serine/threonine-protein kinase NIM1 (Homo sapiens) (UniProt Q8IY84)
[26] = target: Ribosomal protein S6 kinase alpha-3 (Homo sapiens) (UniProt P51812)
[27] = target: Serine/threonine-protein kinase B-raf (Homo sapiens) (UniProt P15056)
[28] = target: Epithelial discoidin domain-containing receptor 1 (Homo sapiens) (UniProt Q08345)
[29] = target: BMP-2-inducible protein kinase (Homo sapiens) (UniProt Q9NSY1)
[30] = target: Phosphatidylinositol 4,5-bisphosphate 3-kinase catalytic subunit alpha isoform (Homo sapiens) (UniProt P42336)
[31] = tested on: Phosphatidylinositol 4,5-bisphosphate 3-kinase catalytic subunit alpha isoform (Homo sapiens), P42336 [H1047Y]
[32] = target: Microtubule-associated serine/threonine-protein kinase 1 (Homo sapiens) (UniProt Q9Y2H9)
[33] = target: Macrophage colony-stimulating factor 1 receptor (Homo sapiens) (UniProt P07333)
[34] = target: Serine/threonine-protein kinase D3 (Homo sapiens) (UniProt O94806)
[35] = target: Protein kinase C eta type (Homo sapiens) (UniProt P24723)
[36] = target: Cyclin-dependent kinase-like 5 (Homo sapiens) (UniProt O76039)
[37] = target: Receptor tyrosine-protein kinase erbB-2 (Homo sapiens) (UniProt P04626)

Measured: residual activity

Serine/threonine-protein kinase B-raf (Homo sapiens), sequence (P15056 whole entry, the tested form may be a part): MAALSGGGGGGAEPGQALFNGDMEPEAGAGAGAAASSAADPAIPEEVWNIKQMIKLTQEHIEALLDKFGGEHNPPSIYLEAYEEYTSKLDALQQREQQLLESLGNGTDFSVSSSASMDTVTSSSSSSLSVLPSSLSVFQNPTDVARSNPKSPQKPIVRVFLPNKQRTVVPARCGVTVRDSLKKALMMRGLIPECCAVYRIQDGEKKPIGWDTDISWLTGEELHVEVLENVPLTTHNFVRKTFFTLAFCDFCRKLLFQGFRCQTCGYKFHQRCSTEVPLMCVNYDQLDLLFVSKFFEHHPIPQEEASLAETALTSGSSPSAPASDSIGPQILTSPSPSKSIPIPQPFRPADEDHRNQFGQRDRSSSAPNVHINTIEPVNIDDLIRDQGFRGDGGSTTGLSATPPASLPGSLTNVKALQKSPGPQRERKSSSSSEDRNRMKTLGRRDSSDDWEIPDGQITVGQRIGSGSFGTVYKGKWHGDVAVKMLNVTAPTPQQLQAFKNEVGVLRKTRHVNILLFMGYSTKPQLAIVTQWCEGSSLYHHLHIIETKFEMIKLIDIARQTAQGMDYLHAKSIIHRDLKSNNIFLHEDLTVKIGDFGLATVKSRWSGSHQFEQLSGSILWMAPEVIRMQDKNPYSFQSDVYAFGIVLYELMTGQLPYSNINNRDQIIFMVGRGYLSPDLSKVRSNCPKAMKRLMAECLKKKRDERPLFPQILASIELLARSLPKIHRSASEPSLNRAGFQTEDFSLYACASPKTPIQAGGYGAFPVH
Serine/threonine-protein kinase 38 (Homo sapiens), sequence (Q15208 2-465 limits assumed): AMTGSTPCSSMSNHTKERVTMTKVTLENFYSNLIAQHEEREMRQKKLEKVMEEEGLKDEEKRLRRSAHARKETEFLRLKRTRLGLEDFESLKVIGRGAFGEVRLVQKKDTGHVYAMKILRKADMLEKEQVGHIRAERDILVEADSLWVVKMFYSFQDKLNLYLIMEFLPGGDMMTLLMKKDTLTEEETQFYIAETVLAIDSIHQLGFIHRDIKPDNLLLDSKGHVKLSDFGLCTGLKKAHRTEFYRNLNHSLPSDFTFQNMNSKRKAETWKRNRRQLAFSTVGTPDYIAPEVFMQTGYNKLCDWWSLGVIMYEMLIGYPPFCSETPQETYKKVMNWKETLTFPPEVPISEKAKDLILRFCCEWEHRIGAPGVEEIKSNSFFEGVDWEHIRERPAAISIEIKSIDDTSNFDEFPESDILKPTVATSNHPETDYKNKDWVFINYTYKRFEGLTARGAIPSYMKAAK
Serine/threonine-protein kinase 36 (Homo sapiens), sequence (Q9NRP7 whole entry): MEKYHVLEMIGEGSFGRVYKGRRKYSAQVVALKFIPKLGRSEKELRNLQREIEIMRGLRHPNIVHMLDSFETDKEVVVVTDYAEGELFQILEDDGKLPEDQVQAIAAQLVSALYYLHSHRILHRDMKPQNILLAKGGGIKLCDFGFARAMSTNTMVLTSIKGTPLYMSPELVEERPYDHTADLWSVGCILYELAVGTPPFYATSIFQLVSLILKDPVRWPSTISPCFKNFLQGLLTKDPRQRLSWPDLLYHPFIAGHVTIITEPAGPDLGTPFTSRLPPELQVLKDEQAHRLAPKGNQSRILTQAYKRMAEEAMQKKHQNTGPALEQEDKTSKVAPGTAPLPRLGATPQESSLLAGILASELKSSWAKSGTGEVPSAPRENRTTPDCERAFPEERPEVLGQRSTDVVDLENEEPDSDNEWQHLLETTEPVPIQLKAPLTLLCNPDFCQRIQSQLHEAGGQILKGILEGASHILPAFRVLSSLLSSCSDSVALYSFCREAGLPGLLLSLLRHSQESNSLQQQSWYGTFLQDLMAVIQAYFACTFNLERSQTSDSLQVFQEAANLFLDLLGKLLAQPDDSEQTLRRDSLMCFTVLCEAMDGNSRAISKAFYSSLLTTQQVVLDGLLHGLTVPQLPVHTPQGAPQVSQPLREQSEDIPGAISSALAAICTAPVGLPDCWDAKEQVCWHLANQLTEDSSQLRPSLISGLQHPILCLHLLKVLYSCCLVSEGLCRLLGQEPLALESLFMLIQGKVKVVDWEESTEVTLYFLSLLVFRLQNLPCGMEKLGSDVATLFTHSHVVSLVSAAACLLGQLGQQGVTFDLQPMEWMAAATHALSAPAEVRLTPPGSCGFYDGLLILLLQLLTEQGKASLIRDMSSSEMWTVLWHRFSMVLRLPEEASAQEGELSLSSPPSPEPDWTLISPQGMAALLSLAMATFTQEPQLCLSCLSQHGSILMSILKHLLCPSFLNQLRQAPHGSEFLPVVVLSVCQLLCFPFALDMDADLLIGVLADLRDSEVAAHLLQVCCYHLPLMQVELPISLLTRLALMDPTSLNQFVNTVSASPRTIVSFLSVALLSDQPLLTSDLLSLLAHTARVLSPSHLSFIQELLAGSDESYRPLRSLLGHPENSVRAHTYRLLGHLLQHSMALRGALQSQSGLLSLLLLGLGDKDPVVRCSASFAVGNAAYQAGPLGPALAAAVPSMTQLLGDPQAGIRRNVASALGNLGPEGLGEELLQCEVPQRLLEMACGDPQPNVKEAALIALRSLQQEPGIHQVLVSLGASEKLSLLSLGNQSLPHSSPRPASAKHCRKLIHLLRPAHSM
Serine/threonine-protein kinase D3 (Homo sapiens), sequence (O94806 whole entry): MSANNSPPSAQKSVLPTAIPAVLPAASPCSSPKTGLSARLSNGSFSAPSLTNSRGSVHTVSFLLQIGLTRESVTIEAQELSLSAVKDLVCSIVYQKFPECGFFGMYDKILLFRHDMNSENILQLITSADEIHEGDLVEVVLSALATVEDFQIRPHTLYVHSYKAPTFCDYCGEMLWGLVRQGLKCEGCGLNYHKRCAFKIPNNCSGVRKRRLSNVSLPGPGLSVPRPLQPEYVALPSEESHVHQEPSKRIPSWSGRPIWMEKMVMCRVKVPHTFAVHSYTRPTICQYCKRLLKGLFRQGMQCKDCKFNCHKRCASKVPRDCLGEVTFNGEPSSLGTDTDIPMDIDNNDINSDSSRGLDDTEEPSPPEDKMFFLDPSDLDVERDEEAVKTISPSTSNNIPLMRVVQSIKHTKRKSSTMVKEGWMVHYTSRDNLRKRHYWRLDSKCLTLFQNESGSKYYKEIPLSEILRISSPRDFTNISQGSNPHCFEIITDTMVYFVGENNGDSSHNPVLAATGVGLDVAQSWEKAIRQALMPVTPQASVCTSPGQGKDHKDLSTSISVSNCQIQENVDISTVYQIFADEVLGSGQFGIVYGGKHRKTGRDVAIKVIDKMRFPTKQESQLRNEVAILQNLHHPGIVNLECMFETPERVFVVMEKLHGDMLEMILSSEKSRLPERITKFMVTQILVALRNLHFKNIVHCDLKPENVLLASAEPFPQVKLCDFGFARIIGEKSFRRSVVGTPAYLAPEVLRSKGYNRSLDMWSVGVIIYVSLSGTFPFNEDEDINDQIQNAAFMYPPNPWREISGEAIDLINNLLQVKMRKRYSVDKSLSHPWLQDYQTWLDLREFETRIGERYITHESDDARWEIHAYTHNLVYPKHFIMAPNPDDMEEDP
Homeodomain-interacting protein kinase 2 (Homo sapiens), sequence (Q9H2X6 whole entry, looked up): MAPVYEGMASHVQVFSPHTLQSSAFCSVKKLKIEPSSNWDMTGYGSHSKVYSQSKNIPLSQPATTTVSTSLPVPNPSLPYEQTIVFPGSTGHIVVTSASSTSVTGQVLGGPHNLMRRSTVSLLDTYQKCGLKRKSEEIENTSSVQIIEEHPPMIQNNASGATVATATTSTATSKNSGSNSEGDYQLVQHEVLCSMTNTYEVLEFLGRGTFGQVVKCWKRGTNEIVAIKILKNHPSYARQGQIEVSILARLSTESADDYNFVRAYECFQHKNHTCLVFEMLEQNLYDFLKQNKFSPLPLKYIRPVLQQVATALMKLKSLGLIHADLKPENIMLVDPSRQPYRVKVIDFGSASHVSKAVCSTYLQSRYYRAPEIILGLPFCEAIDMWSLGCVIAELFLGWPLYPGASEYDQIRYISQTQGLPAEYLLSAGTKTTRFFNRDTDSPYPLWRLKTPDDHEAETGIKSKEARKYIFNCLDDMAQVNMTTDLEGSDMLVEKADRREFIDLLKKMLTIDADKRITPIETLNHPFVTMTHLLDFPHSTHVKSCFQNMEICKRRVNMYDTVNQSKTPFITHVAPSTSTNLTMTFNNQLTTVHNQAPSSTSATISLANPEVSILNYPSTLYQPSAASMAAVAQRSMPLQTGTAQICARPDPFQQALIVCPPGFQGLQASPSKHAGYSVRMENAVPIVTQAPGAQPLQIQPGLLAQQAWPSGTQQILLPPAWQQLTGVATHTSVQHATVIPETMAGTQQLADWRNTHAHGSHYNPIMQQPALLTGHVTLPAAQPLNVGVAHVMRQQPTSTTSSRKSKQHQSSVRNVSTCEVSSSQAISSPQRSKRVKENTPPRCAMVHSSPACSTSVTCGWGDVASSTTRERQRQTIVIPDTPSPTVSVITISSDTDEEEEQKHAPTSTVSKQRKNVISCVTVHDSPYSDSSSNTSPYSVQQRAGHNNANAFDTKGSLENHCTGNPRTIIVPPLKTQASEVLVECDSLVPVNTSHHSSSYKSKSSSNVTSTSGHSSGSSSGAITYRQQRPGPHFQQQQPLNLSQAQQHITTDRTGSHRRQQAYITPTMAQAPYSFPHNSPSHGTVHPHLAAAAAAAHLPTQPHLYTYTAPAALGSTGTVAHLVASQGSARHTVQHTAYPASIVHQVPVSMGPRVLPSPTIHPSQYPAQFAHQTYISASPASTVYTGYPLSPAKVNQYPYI
Mitogen-activated protein kinase 10 (Homo sapiens), sequence (P53779 whole entry): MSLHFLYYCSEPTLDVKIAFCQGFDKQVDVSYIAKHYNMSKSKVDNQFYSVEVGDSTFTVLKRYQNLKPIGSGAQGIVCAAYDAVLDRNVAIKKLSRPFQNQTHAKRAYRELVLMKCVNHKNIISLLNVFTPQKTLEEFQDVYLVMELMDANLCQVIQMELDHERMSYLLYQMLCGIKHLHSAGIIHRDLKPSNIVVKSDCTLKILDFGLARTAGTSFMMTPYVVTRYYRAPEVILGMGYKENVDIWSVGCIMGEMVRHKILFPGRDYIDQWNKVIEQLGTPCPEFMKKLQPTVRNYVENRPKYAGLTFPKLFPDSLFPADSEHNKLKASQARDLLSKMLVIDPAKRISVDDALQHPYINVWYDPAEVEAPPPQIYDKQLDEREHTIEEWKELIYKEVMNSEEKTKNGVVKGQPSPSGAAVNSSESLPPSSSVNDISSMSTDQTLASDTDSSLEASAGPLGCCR

Cn1cc(Cl)c2c(Oc3c(F)cc(Nc4cc(Cl)nc(N)n4)cc3F)ccnc21 [BAY-4900]
inactive: [1] 100% | [2] 97% | [3] 100% | [4] 76% | [5] 100% | [6] 100% | [7] 100% | [8] 100% | [9] 88% | [10] 100% | [11] 100% | [12] 99% | [13] 75% | [14] 100% | [15] 83% | [16] 87% | [17] 100% | [18] 80% | [19] 93% | [20] 100% | [21] 100% | [22] 100% | [23] 100% | [24] 100% | [25] 93% | [26] 79% | [27] 100% | [28] 100% | [29] 100% | [30] 79% | [31] 62% | [32] 100% | [33] 89% | [34] 100% | [35] 98% | [36] 78% | [37] 95%

Cc1c[nH]c2nccc(Oc3c(F)cc(Nc4cc(Cl)nc(N)n4)cc3F)c12 [BAY-549]
inactive: [1] 91% | [2] 97% | [3] 100% | [4] 68% | [5] 96% | [6] 98% | [7] 100% | [8] 98% | [9] 100% | [10] 100% | [11] 100% | [12] 98% | [13] 74% | [14] 100% | [15] 85% | [16] 89% | [17] 90% | [18] 81% | [19] 85% | [20] 97% | [21] 77% | [22] 93% | [23] 96% | [24] 99% | [25] 75% | [26] 73% | [27] 98% | [28] 100% | [29] 100% | [30] 83% | [31] 83% | [32] 100% | [33] 100% | [34] 100% | [35] 74% | [36] 73% | [37] 99%
